Key:
Test in all cases: relative viability (nuclei count vs DMSO), 5 days (fraction); higher = more cells survive
Veliparib + Pemetrexed = compound: C[C@]1(c2nc3c(C(N)=O)cccc3[nH]2)CCCN1 [Veliparib] + Nc1nc2[nH]cc(CCc3ccc(C(=O)N[C@@H](CCC(=O)O)C(=O)O)cc3)c2c(=O)[nH]1 [Pemetrexed] (partner 0.2 µM)
Procedure, shortened: (§1)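 Five library-drug doses in √10 steps were combined with a fixed anchor-drug dose, or a single drug was given alone, by pin tool to lung cancer cell lines in 1536-well plates the day after seeding. Nuclei were stained and counted after 5 days. Relative viability is the nuclei count in treated wells over that in vehicle wells, taken as the median of duplicate plates.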

Veliparib + OSI-027 = compound: C[C@]1(c2nc3c(C(N)=O)cccc3[nH]2)CCCN1 [Veliparib] + COc1cccc2cc(-c3nc([C@H]4CC[C@H](C(=O)O)CC4)n4ncnc(N)c34)[nH]c12 [OSI-027] (partner 0.5 µM)
Procedure, shortened: as §1

Veliparib + Lapatinib = compound: C[C@]1(c2nc3c(C(N)=O)cccc3[nH]2)CCCN1 [Veliparib] + CS(=O)(=O)CCNCc1ccc(-c2ccc3ncnc(Nc4ccc(OCc5cccc(F)c5)c(Cl)c4)c3c2)o1 [Lapatinib] (partner 2 µM)
Procedure, shortened: as §1

[1] = compound: COC1=CC=C(C=C1)CN2C=CC3=C2C=C(C=C3)C(=O)NO + COc1cc2c(Oc3ccc(NC(=O)C4(C(=O)Nc5ccc(F)cc5)CC4)cc3F)ccnc2cc1OCCCN1CCOCC1 [Foretinib] (partner 0.25 µM)
Procedure, shortened: as §1

| Cell Line | relative viability (Veliparib + Pemetrexed; first compound 0.02 µM) | relative viability (Veliparib + Pemetrexed; first compound 0.06325 µM) | relative viability (Veliparib + Pemetrexed; first compound 0.2 µM) | relative viability (Veliparib + Pemetrexed; first compound 0.6325 µM) | relative viability (Veliparib + Pemetrexed; first compound 2 µM) | relative viability (Veliparib + OSI-027; first compound 0.02 µM) | relative viability (Veliparib + OSI-027; first compound 0.06325 µM) | relative viability (Veliparib + OSI-027; first compound 0.2 µM) | relative viability (Veliparib + OSI-027; first compound 0.6325 µM) | relative viability (Veliparib + OSI-027; first compound 2 µM) | relative viability (Veliparib + Lapatinib; first compound 0.02 µM) | relative viability (Veliparib + Lapatinib; first compound 0.06325 µM) | relative viability (Veliparib + Lapatinib; first compound 0.2 µM) | relative viability (Veliparib + Lapatinib; first compound 0.6325 µM) | relative viability (Veliparib + Lapatinib; first compound 2 µM) | relative viability ([1]; first compound 0.08 µM) | relative viability ([1]; first compound 0.253 µM) | relative viability ([1]; first compound 0.8 µM) | relative viability ([1]; first compound 2.53 µM) | relative viability ([1]; first compound 8 µM) |
| --- | --- | --- | --- | --- | --- | --- | --- | --- | --- | --- | --- | --- | --- | --- | --- | --- | --- | --- | --- | --- |
| NCI-H23 | 0.615 | 0.593 | 0.623 | 0.747 | 0.622 | 0.652 | 0.393 | 0.587 | 0.518 | 0.737 | 1.19 | 0.995 | 0.84 | 0.873 | 1.01 | 0.823 | 1.17 | 0.981 | 0.955 | 0.853 |
| NCI-H322M | – | 0.582 | 0.611 | 0.568 | 0.614 | – | 0.48 | 0.526 | 0.557 | 0.482 | 0.722 | 0.602 | 0.629 | 0.61 | 0.471 | – | 1.03 | 1.06 | 0.984 | 0.882 |
| NCI-H358 | 0.206 | 0.173 | 0.165 | 0.146 | 0.176 | 0.496 | 0.715 | 0.796 | 0.611 | 0.698 | – | 0.464 | 0.503 | 0.393 | 0.452 | – | 0.684 | 0.801 | 0.575 | 0.57 |
| NCI-H460 | 0.0617 | 0.0618 | 0.0599 | 0.0593 | 0.0663 | 0.677 | 0.63 | 0.621 | 0.583 | 0.632 | – | 0.866 | 0.909 | 0.904 | 1.01 | 0.53 | 1.06 | 0.973 | 0.974 | 1.02 |
| NCI-H520 | 0.877 | 0.657 | 0.904 | 0.637 | 0.674 | 0.224 | 0.309 | 0.276 | 0.231 | 0.234 | 0.986 | 0.859 | 0.912 | 0.733 | 0.858 | 0.326 | 0.841 | 0.895 | 0.814 | 0.907 |
| NCI-H596 | 0.475 | 0.451 | 0.463 | 0.509 | 0.474 | 0.805 | 0.696 | 0.779 | 0.783 | 0.68 | 1.14 | 0.902 | 1.01 | 1.19 | 1.01 | 0.841 | 0.983 | 0.846 | 0.895 | 0.523 |
| NCI-H647 | 0.167 | 0.188 | 0.192 | 0.175 | 0.216 | 0.662 | 0.479 | 0.618 | 0.605 | 0.648 | 1.24 | 0.986 | 0.973 | 1 | 1.16 | 0.707 | 1.34 | 1.09 | 1.2 | 1.38 |
| NCI-H650 | 0.992 | 0.895 | 0.868 | 0.822 | 0.961 | 0.436 | 0.415 | 0.543 | 0.48 | 0.55 | 0.82 | 0.827 | 0.816 | 0.932 | 0.501 | 1.04 | 1.01 | 1.04 | 1.02 | 0.936 |
| NCI-H661 | 0.973 | 0.897 | 0.918 | 0.865 | 0.901 | 0.751 | 0.704 | 0.743 | 0.669 | 0.657 | 0.413 | 0.483 | 0.56 | 0.447 | 0.533 | – | 1.02 | 1.03 | 0.999 | 0.927 |
| NCI-H838 | 0.262 | 0.255 | 0.244 | 0.269 | 0.269 | 0.419 | 0.328 | 0.409 | 0.296 | 0.372 | 1.12 | 0.842 | 0.902 | 0.847 | 0.979 | – | 1.07 | 1 | 0.995 | 0.982 |
| NCI-H1355 | 0.874 | 0.998 | 1.01 | 0.962 | 1 | – | 0.323 | 0.448 | 0.357 | 0.355 | – | 0.882 | 0.999 | 0.939 | 0.968 | – | 0.959 | 0.928 | 1.02 | 0.962 |
| NCI-H1395 | 0.762 | 0.886 | 0.768 | 0.792 | 0.653 | 0.494 | 0.576 | 0.548 | 0.579 | 0.523 | – | 0.76 | 0.874 | 0.716 | 0.83 | 0.916 | 0.949 | 0.99 | 1.04 | 0.99 |
| NCI-H1437 | 0.31 | 0.276 | 0.325 | 0.356 | 0.34 | 0.694 | 0.959 | 0.878 | 0.759 | 0.844 | 0.519 | 0.794 | 0.72 | 0.78 | 0.759 | 1.05 | 1.21 | 1.22 | 1.34 | 1.27 |
| NCI-H1563 | 0.694 | 0.766 | 0.742 | 0.728 | 0.685 | 0.672 | 0.741 | 0.799 | 0.751 | 0.77 | 0.695 | 1.02 | 0.976 | 0.978 | 0.987 | 0.762 | 0.897 | 0.888 | 0.928 | 0.892 |
| NCI-H1650 | 0.388 | 0.332 | 0.373 | 0.331 | 0.362 | – | 0.501 | 0.691 | 0.502 | 0.561 | – | 0.702 | 0.855 | 0.739 | 0.718 | 0.764 | 1.14 | 1.29 | 1.27 | 0.766 |
| NCI-H1651 | 0.55 | 0.65 | 0.578 | 0.537 | 0.563 | 0.699 | 0.626 | 0.619 | 0.659 | 0.697 | 0.557 | 0.755 | 0.92 | 0.835 | 0.775 | 0.646 | 0.89 | 0.709 | 0.723 | 0.694 |
| NCI-H1666 | 0.866 | 0.782 | 0.879 | 0.866 | 0.898 | 0.938 | 0.791 | 0.763 | 0.806 | 0.848 | 0.606 | 0.348 | 0.675 | 0.744 | 0.662 | 0.755 | 1.06 | 0.985 | 0.963 | 1.06 |
| NCI-H1734 | – | 0.396 | 0.398 | 0.389 | 0.392 | 0.44 | 0.575 | 0.57 | 0.585 | 0.67 | 1.16 | 0.982 | 0.933 | 0.981 | 1.12 | – | 0.919 | 0.852 | 0.897 | 0.863 |
| NCI-H1755 | 0.405 | 0.43 | 0.397 | 0.392 | 0.444 | 0.767 | 0.713 | 0.683 | 0.586 | 0.645 | 1.02 | 1 | 1.01 | 0.99 | 0.989 | 0.892 | 1.01 | 0.915 | 0.941 | 0.946 |
| NCI-H1793 | 0.755 | 0.763 | 0.935 | 1.07 | 0.875 | 0.317 | 0.265 | 0.31 | 0.286 | 0.262 | 0.548 | 0.555 | 0.788 | 0.572 | 0.762 | – | 0.732 | 0.63 | 0.656 | 0.63 |
| NCI-H1915 | 0.532 | 0.463 | 0.537 | 0.491 | 0.487 | 0.587 | 0.616 | 0.545 | 0.567 | 0.574 | 0.96 | 0.897 | 0.756 | 0.872 | 0.885 | 1.07 | 1.1 | 1.15 | 1.07 | 1.09 |
| NCI-H1944 | 0.596 | 0.695 | 0.547 | 0.607 | 0.615 | 0.439 | 0.363 | 0.394 | 0.349 | 0.384 | 0.825 | 0.748 | 0.627 | 0.72 | 0.767 | – | 0.874 | 0.853 | 0.887 | 0.912 |
| NCI-H1975 | 0.292 | 0.332 | 0.295 | 0.292 | 0.311 | 0.715 | 0.674 | 0.676 | 0.677 | 0.68 | 0.843 | 0.765 | 0.831 | 0.873 | 0.911 | 0.931 | 1.14 | 0.934 | 0.968 | 0.926 |
| NCI-H1993 | – | 0.708 | 0.616 | 0.632 | 0.627 | 0.592 | 0.531 | 0.562 | 0.585 | 0.51 | 0.794 | 0.759 | 0.823 | 0.851 | 0.85 | 0.552 | 0.818 | 0.836 | 0.892 | 0.777 |
| NCI-H2009 | 1.09 | 0.952 | 0.957 | 0.978 | 1.07 | 0.63 | 0.645 | 0.672 | 0.586 | 0.672 | 0.748 | 0.903 | 0.909 | 0.815 | 1.03 | 0.931 | 1.3 | 1.17 | 1.27 | 1.24 |
| NCI-H2023 | – | 0.212 | 0.27 | 0.221 | 0.231 | 0.339 | 0.398 | 0.442 | 0.347 | 0.432 | 0.428 | 0.759 | 0.743 | 0.745 | 0.862 | 0.489 | 0.899 | 0.778 | 0.697 | 0.722 |
| NCI-H2085 | 0.58 | 0.952 | 0.911 | 0.875 | 0.802 | – | 0.721 | 0.629 | 0.713 | 0.675 | 0.473 | 0.684 | 0.677 | 0.782 | 0.637 | 0.906 | 0.979 | 1.12 | 0.84 | 0.991 |
